This is an account of results in PMC10618370, “Mur ligase F as a new target for the flavonoids quercitrin, myricetin, and (–)-epicatechin” (Journal of Computer-Aided Molecular Design, 2023).

One data set has as its target E. coli MurC (Escherichia coli, UniProt P17952). Description: MurC inhibition assay (Malachite green). The note with it: 0.25 h; residual activity at 100 µM compound; mean ± SD of three independent experiments; read-out: RA (%) @ 100 µM MurC. Format: biochemical. On the procedure: (§1) Inhibition of the Mur ligases was determined using the Malachite green assay, with slight modifications. […] In all cases, the final concentration of DMSO was 5% (v/v).
(§2) After incubation for 15 min at 37 °C, the enzyme reaction was terminated by the addition of 100 µM Biomol green reagent®, and the absorbance was measured at 650 nm after 5 min. Experiments to determine the RA run in triplicate. Residual activities were calculated with respect to control assays without the tested compounds, but with the 5% DMSO carrier. The IC50 values were determined by measuring the residual activities at seven different compound concentrations, and they represent the concentration of the compound at which the residual activity was 50%. IC50 values were obtained by plotting the residual enzyme activities against the applied inhibitor concentrations, fitting the experimental data to the 4-parameter Hill equation: Y=Bottom-Top-Bottom/1+10^logIC50-X×HillSlope , where X is the logarithm of the inhibitor concentration, and Y is the residual activity. The IC50 values were determined in three independent experiments. GraphPad Prism 8.2.0 (GraphPad Software, San Diego, CA, USA) was used for the fitting procedure.
(§3) The assay detects the phosphate formed in each enzyme reaction. To avoid any possibility of the compounds inhibiting the enzymes due to aggregation, a detergent (0.005% Triton-X114) was added to the test system.

In the next data set the target is E. coli MurD (Escherichia coli, UniProt P14900). In words: MurD inhibition assay (Malachite green). The class given is biochemical. The note with it: 0.25 h; residual activity at 100 µM compound; mean ± SD of three independent experiments; read-out: RA (%) @ 100 µM MurD. On the procedure: as §1, §2, §3
Chain of E. coli MurD (P14900 whole entry): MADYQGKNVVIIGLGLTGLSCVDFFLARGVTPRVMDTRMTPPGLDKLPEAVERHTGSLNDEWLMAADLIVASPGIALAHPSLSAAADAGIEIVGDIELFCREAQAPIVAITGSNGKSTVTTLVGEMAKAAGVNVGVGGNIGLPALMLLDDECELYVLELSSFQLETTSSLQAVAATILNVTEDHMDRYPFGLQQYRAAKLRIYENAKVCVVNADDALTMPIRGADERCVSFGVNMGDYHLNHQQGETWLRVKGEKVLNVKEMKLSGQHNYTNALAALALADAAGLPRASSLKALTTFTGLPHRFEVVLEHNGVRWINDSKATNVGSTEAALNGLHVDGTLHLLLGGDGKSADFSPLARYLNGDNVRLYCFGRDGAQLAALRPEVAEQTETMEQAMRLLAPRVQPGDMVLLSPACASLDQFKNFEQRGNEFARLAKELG
Another data set addresses E. coli MurE (Escherichia coli, UniProt P22188). In words: MurE inhibition assay (Malachite green). The class given is biochemical. The note with it: for remaining activity at 100 µM: 0.25 h, residual activity at 100 µM compound, mean ± SD of three independent experiments, read-out: RA (%) @ 100 µM MurE. On the procedure:
as §1, §2, §3

The target of a further data set is E. coli MurF (Escherichia coli, UniProt P11880). Description: MurF inhibition assay (Malachite green). The class given is biochemical. Particulars: for IC50: seven compound concentrations, 4-parameter Hill fit, three independent experiments; for remaining activity at 100 µM: 0.25 h, residual activity at 100 µM compound, mean ± SD of three independent experiments, read-out: RA (%) @ 100 µM MurF. On the procedure: as §1, §2, §3
Chain of E. coli MurF (P11880 whole entry): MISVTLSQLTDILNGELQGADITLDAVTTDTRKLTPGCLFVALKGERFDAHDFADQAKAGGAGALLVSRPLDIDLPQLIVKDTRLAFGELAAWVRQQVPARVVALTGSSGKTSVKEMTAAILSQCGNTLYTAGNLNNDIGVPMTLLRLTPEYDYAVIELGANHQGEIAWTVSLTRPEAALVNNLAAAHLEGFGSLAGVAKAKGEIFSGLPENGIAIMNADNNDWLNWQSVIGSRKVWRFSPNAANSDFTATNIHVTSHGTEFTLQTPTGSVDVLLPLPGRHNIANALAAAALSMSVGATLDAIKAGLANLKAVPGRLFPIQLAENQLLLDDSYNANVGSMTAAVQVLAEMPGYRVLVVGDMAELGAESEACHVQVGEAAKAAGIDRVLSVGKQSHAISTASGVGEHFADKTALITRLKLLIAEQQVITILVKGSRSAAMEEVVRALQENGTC

The next data set relates to E. coli (ATCC 25,922). In words: Antibacterial assay, broth microdilution MIC. Format: cell-based. Particulars: broth microdilution; for MIC: Escherichia coli, ATCC25, 20 h at 35 °C, read-out: MIC E.coli. On the procedure:
(§4) Antimicrobial testing was performed by the broth microdilution method in 96-well plates following the Clinical and Laboratory Standards Institute guidelines and European Committee on Antimicrobial Susceptibility Testing recommendations (Clinical and Laboratory Standards Institute). Bacterial suspensions equivalent to 0.5 McFarland turbidity standard were diluted with cation-adjusted Mueller–Hinton broth with TES buffering (ThermoFisher Scientific), for a final inoculum of 10^5 CFU/ mL. Compounds dissolved in DMSO and the inoculum were mixed and incubated for 20 h at 35 °C. […] The MICs were determined against two reference bacterial strains, S. aureus (ATCC 29,213) and E. coli (ATCC 25,922). Tetracycline was used as the positive control on every assay plate, with MICs of 0.5 and 1 µg/mL for S. aureus and E. coli, respectively. All MICs were determined in three independent experiments.

Another data set concerns S. aureus (ATCC 29,213). Description: Antibacterial assay, broth microdilution MIC. The class given is cell-based. Particulars: broth microdilution; for MIC: Staphylococcus aureus, ATCC29, 20 h at 35 °C, read-out: MIC S.aureus. On the procedure:
as §4

The target in the next data set is MurF from E. coli (Escherichia coli, UniProt P11880). In words: Steady-state kinetic analysis of compound 21. Format: biochemical. On the procedure: For compound 21, Ki values were determined against MurF from E. coli. Ki determinations were performed under similar conditions to those described for the inhibition assay, where the different concentrations of one substrate and a fixed concentration of the other two were used. First, the concentration of UM3DAP was varied (25, 50, 100, 200 µM) at fixed ATP (500 µM) and D-Ala-D-Ala (600 µM)), then the concentration of D-Ala-D-Ala was varied (50, 100, 200, 400, 600 µM) at fixed ATP (500 µM) and UM3DAP (100 µM), and finally, the concentration of ATP was varied (50, 100, 350, 500 µM) at fixed UM3DAP (100 µM) and D-Ala-D-Ala (600 µM). The concentrations of 21 were 0, 25, 50, 75, 100, 200, 350 and 500 µM and the concentration of the MurF was 20 nM. After a 15 min incubation, 100 µM Biomol green reagent® was added, and the absorbance was read at 650 nm after 5 min. All experiments were run in triplicate.
Chain of MurF from E. coli (P11880 whole entry): as above
The data were analysed using the SigmaPlot 12.0 software. The initial velocities were fitted to competitive, non-competitive, uncompetitive and mixed enzyme inhibition. The Ki and mode of inhibition from the best ranking model were used, as provided by the software.

Data set [1] can be described thus: Solubility under the Mur ligase assay conditions. Format: physicochemical.

Entries after “also recorded” stand apart in the source; their conditions may differ. A value given as a limit tells only on which side of the number the result lay.

Chain of E. coli MurC (P17952 whole entry): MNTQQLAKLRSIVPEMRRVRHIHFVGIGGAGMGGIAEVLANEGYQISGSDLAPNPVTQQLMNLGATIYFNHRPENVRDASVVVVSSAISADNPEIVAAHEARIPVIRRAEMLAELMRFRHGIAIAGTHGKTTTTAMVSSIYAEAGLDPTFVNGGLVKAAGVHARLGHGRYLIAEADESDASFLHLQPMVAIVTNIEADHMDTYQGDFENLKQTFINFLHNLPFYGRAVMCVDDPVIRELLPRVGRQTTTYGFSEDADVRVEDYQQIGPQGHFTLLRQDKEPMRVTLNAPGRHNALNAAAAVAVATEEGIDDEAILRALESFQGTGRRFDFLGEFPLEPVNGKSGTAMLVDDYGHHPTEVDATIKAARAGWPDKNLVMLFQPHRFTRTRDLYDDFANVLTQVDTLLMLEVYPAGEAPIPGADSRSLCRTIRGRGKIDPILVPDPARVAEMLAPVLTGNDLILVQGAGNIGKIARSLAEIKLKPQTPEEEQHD
Chain of E. coli MurE (P22188 whole entry): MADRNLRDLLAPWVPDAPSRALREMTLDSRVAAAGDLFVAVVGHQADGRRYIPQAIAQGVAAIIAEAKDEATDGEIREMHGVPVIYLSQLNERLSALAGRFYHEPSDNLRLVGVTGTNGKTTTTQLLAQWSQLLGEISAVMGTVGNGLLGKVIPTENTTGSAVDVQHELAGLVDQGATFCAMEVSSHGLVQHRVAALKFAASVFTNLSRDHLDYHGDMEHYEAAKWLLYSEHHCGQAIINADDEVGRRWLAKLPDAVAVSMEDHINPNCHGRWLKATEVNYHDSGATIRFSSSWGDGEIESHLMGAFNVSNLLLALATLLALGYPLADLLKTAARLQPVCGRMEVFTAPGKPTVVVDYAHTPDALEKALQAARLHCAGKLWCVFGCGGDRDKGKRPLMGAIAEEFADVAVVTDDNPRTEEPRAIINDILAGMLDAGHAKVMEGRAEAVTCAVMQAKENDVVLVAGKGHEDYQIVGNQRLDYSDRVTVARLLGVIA

With `Oc1cc(O)c2c(c1)O[C@H](c1ccc(O)c(O)c1)[C@H](O)C2` [Compound 21, (–)-epicatechin], the remaining activity at 100 µM is 92 ± 8% at E. coli MurC, 94 ± 9% at E. coli MurD and 79 ± 8% at E. coli MurE. At E. coli MurF, this compound yielded an IC50 of 92 ± 13 µM. In addition, the MIC in the data set with E. coli (ATCC 25,922) and in the data set on S. aureus (ATCC 29,213) was over 250 µM throughout. For the same compound, in the data set on E. coli (ATCC 25,922), the “Inhibition of growth of E. coli (in words)” value is “inactive”. Further, in the data set on S. aureus (ATCC 29,213), the “Inhibition of growth of S. aureus (in words)” value is “inactive”. Further, the Ki on MurF from E. coli (substrate ATP varied, UM3DAP 100 µM, D-Ala-D-Ala 600 µM fixed) is 28.5 ± 2.7 µM; on MurF from E. coli (substrate D-Ala-D-Ala varied, ATP 500 µM, UM3DAP 100 µM fixed), 58.2 ± 5.1 µM; on MurF from E. coli (substrate UM3DAP varied, ATP 500 µM, D-Ala-D-Ala 600 µM fixed) it was 70.1 ± 4 µM. Moreover, the Mechanism of inhibition result at MurF from E. coli (with respect to ATP) is on record as “mixed inhibition; also recorded: mixed inhibitor; also recorded: Mixed (partial)”; on MurF from E. coli (with respect to ATP, listed as (–)-epicatechin), “mixed type inhibition”; on MurF from E. coli (with respect to D-Ala-D-Ala), “uncompetitive inhibitor; also recorded: Uncompetitive (partial)”; on MurF from E. coli (with respect to D-Ala-D-Ala, listed as (–)-epicatechin) it was “uncompetitive inhibition”; at MurF from E. coli (with respect to UM3DAP) it was “uncompetitive inhibitor; also recorded: Uncompetitive (partial)”; on MurF from E. coli (with respect to UM3DAP, listed as (–)-epicatechin), “uncompetitive inhibition”. Also, the “α (mixed partial inhibition model)” value at MurF from E. coli (with respect to ATP) is recorded as 1.5. The “β (mixed partial inhibition model)” value on MurF from E. coli (with respect to ATP) came to 0.4545.
For `Oc1cc(O)c2c(c1)O[C@H](c1ccc(O)c(O)c1)[C@@H](O)[C@H]2O` [Compound 20, Leucocyanidin], the remaining activity at 100 µM worked out at 95 ± 8% on E. coli MurC and 91 ± 9% at E. coli MurD. Also, the IC50 against E. coli MurE (seven compound concentrations, 4-parameter Hill fit, three independent experiments) was 164 ± 14 µM; on E. coli MurF it was 28 ± 8 µM. Further, the MIC in the data set with E. coli (ATCC 25,922) and with S. aureus (ATCC 29,213) was over 250 µM each time. In data set [1], the “Solubility under the assay conditions (in words)” value is “poor solubility”.
In the case of `CC1OC(OCC2OC(Oc3c(-c4ccc(O)c(O)c4)oc4cc(O)cc(O)c4c3=O)C(O)C(O)C2O)C(O)C(O)C1O` (centres unmarked) [Compound 7], the remaining activity at 100 µM worked out at 100 ± 10% at E. coli MurC, 97 ± 9% at E. coli MurD, 100 ± 10% on E. coli MurE and 89 ± 10% at E. coli MurF. The MIC in the data set on E. coli (ATCC 25,922) and in the data set on S. aureus (ATCC 29,213) was over 250 µM throughout.
As for `O=C1C[C@@H](c2ccc(O)cc2)Oc2cc(O)cc(O)c21` [Compound 5], the remaining activity at 100 µM at E. coli MurC worked out at 97 ± 8%; at E. coli MurD, 100 ± 9%; at E. coli MurE, 98 ± 9%; at E. coli MurF it was 87 ± 9%. Further, the minimal inhibitory concentration (MIC) in the data set with E. coli (ATCC 25,922) and with S. aureus (ATCC 29,213) was over 250 µM in each case.
Consider `CC1OC(Oc2c(-c3cc(O)c(O)c(O)c3)oc3cc(O)cc(O)c3c2=O)C(O)C(O)C1O` (centres unmarked) [Compound 11], for which the remaining activity at 100 µM at E. coli MurC was 97 ± 7%; on E. coli MurD, 89 ± 7%; at E. coli MurE, 100 ± 10%; at E. coli MurF, 86 ± 9%. Also, the MIC with E. coli (ATCC 25,922) and with S. aureus (ATCC 29,213) was over 250 µM throughout.
